Assay [1] deals with Human SH-SY5Y neuroblastoma. Description: Clozapine-induced cell death in SH-SY5Y cells, MTS assay. The conditions noted are these: 24 hours. It is filed as cell-based. From the text: Clozapine, a widely used anti psychotic drug may be associated with increased cell mortality. It was not known, however, whether NAP ([…], SEQ ID NO:2) treatment would inhibit clozapine associated neuronal death. To address this question and validate the efficiency of using a NAP-clozapine combination drug candidate, an experimental test system in cell culture was established (Heiser et al., Journal of Psychopharmacology 21(8):851-856 (2007)). Human SH-SY5Y neuroblastoma supplemented with 15% fetal calf serum (FCS) (Beit-Haemek, Israel), 1% penicillin-streptomycin, and 1% glutamine were incubated in a 5% CO2 atmosphere. Thirty-six thousand cells/well (in a 96 well plates) were plated 24 hours prior to the clozapine or NAP treatment. Clozapine (CLZ) was obtained from Sigma Chemicals (Sigma, Israel). Thirty-six thousand cells per well (in at least 6 replicate wells) were exposed to clozapine (CLZ, 20 μg/ml) or clozapine (CLZ, 20 μg/ml)+NAP or NAP alone (10^−15M-10^−10 M) for 24 hours at 37° C. Drug and control solutions were dissolved in ethanol. Measurement of metabolic activity and survival was determined by non-radioactive cell proliferation assay (MTS) (Promega, USA) and evaluated by an ELISA-reader at 490 nm wavelength.
(Tetrazolium dyes change colour on reduction, which living cells bring about.)

Assay [2] relates to cell cultures. The conditions noted are these: cited from earlier work.
Assay [3] has as its system STOP+/+ mice. The experiment in a line: Behavioral tests in control STOP+/+ mice. It counts as in vivo, mouse. From the text: For the initial comparisons of STOP+/− mice to STOP+/+ mice (littermates), each experimental group included 10-12 mice, 4-12 month-old; mean age 6 months, there were no highly significant differences between the tested ages in terms of the behavioral outcome). The STOP+/+ and STOP+/− male mice received daily (5 days a week) NAP nasal application vehicle as follows below for the duration of 7-10 weeks.
The NAP vehicle solution (termed DD), included the following ingredients (per milliliter): 7.5 mg of NaCl, 1.7 mg of citric acid monohydrate, 3 mg of disodium phosphate dihydrate, and 0.2 mg of benzalkonium chloride solution (50%) (Alcalay R N et al., Neurosci Lett, 361(1-3): 128-131 (2004)). […]
Locomotor activity was measured in 5 consecutive sessions, 3 minutes each and the mean path length in cm of each mouse in the 3 minute sessions per the entire 15 minute period of observation in open field (80 cm diameter) was determined. […]
The test is based on visual discrimination between two different objects in an arena of 30 cm×40 cm. […] One hour after the daily intranasal NAP treatment, or clozapine injection, each male mouse was exposed to two identical objects for 5 minutes and the time spent sniffing/touching each object was measured (first daily session). […] The data was analyzed using two different methods. […]

The subject of assay [4] is closed head injury in mice. The note with it: cited from earlier work.
The subject of assay [5] is Rat pheochromocytoma cells (PC12). Description: Serum-deprivation survival of PC12 cells, MTS viability assay. It is filed as cell-based. How it is done: The survival-promoting effects of galantamine (an acetylcholine-esterase inhibitor, or AcEI), NAP, and their combinatorial treatment were assessed in cell cultures. Cell culture method was adapted from Calderon et al., J Neurosci Res 56, 620-631 (1999).
Rat pheochromocytoma cells (PC12) were grown in Dulbecco's modified Eagle's medium (DMEM) supplemented with 8% fetal calf serum, 8% horse donor serum, 2 mm L-glutamine, and 1% penicillin-streptomycin solution.
For the experiments, cells were harvested, re-suspended, and seeded in 96-well plates at a concentration of 1.5×10^4 cells/well. Cells were pretreated with NAP and Galantamine [Galantamine (0.1, 0.5, 1, 10 μM); NAP (10^−8M, 10^−1° M, 10^−12M, 10^−15M)] 3 hours prior to serum deprivation and during serum deprivation. The assay for cell viability was performed 48 hours after serum deprivation. Calibration method is described below.
Culture medium was replaced by fresh medium without serum, containing NAP and Galantamine. Cells were incubated for 48 hours and then subject to MTS viability assay.
PC12 cells were seeded and treated as mentioned above without any drugs for 24 hours, 48 hours, and 72 hours. MTS results are represented by the percentage of viable cells from the serum deprived treatment vs. control treatment.

For assay [6], the system named is ADNP-deficient mice, triple transgenic mouse model of AD, model of frontotemporal dementia. The note with it: in vivo; cited from earlier work.

Entries after “also recorded” stand apart in the source; their conditions may differ.

Data on one compound can be found in US20120010148A1, “COMBINATION THERAPIES USING NAP” (ALLON THERAPEUTICS INC., priority 2008, published 2012).

Turning to `CC[C@H](C)[C@H](NC(=O)[C@H](CO)NC(=O)[C@@H](NC(=O)[C@@H]1CCCN1C(=O)[C@H](C)NC(=O)[C@@H](N)CC(N)=O)C(C)C)C(=O)N1CCC[C@H]1C(=O)N[C@@H](CCC(N)=O)C(=O)O` [NAP], in assay [1] (NAP 10^−15M with clozapine 20 μg/ml, FIG. 1), the “effect on clozapine induced cell death” value is given as “reversed”. Besides, in assay [1] (NAP alone 10^−15M-10^−10 M, FIG. 2), the “cell mortality with NAP alone” value is “does not affect cell mortality; also recorded: did not affect cell mortality”. The “neuroprotective activity against a wide variety of toxins” value in assay [2] is recorded as “neuroprotective activity at femtomolar concentrations”. Further, the “open field locomotor activity in control mice” value in assay [3] (STOP+/+ mice, NAP intranasal 0.5 μg/mouse/day) is reported as “trend; also recorded: non-significant effect”. Moreover, in assay [3] (control mice treated with NAP), the “cognitive performance of control mice” value is “did not show improvement in their cognitive performance”. The “damage caused by closed head injury” value in assay [4] is reported as “reduced damage”. The “protection against extensive cell death” value in assay [5] (>40% cell death, compared against cultures supplemented with serum, FIG. 7) was “Neither NAP nor galantamine protected”. The “protection against serum deprivation” value in assay [5] (NAP alone, FIG. 5) is on record as “provided protection”. Further, the “tau hyperphosphorylation and cognitive functions” value in assay [6] was “reduces tau hyperphosphorylation and enhances cognitive functions”.
